The target in one experiment is T1, hCB1R (Homo sapiens, UniProt P21554).
T1 construct: expressed in transfected cells; host or cells: CHO cells (membranes)
Nature of the experiment: [3H]CP55,940 radioligand displacement assay, CHO cell membranes. The experiment is classed as binding. The protocol:
(§1) CHO cells stably expressing hCB1R or hCB2R were maintained at 37 °C and 5% CO2 in Gibco Ham’s F-12 nutrient mix (Fisher Scientific, Loughborough, UK ) supplemented with 2 mM L-glutamine, 10% fetal bovine serum (FBS), 0.6% penicillin−streptomycin (Fisher Scientific, Loughborough UK), and the disulfate salt of geneticin (G418) as previously described (Sigma-Aldrich, Poole, UK). For subsequent radioligand displacement assays, membranes were prepared by scraping cells from flasks, centrifuging the cells, and storing the cell pellet at −20 °C. When required for us, cell pellets were defrosted and diluted in tris buffer (50 mM Tris-HCl and 50 mM Tris-base). As we have described in previous studies, HitHunter (cAMP) and PathHunter (βarrestin2) CHO-K1 cells stably expressing hCB1R or hCB2R from DiscoveRx® (Eurofins, Fremont, CA, USA) were maintained at 37 °C, 5% CO2 in F-12 DMEM containing 10% FBS and 1% Pen/Strep with 800 µg/mL geneticin (HitHunter) or 800 µg/mL G418 and 300 µg/mL hygromycin B (PathHunter).
(§2) We have previously described radioligand displacement assays in detail. […] Binding reactions were terminated by ice-cold tris binding buffer and subsequent vacuum filtration (24-well sampling manifold (Brandel cell harvester; Brandel Inc., Gaithersburg, MD, USA)) using Brandel GF/B filters soaked in wash buffer at 4 °C for at least 24 h. Filters were washed with 1.2 mL of tris-binding buffer six times, then oven-dried for 60 min before being incubated in 3 mL of scintillation fluid (Ultima Gold XR, PerkinElmer, Seer Green, Buckinghamshire, UK). Radioactivity was quantified by liquid scintillation spectrometry. All compounds were first prepared at 10 mM solutions in DMSO. The final vehicle concentration for assays was 0.1% DMSO. All assays were performed in duplicate.
(§3) Estimates of Ki, EC50, and Emax were determined using non-linear regression three-parameters (GraphPad, Prism, v. 9.0).

The next experiment deals with T2, hCB2R (Homo sapiens, UniProt P34972).
T2 construct: host or cells: HitHunter CHO-K1 cells
T2 sequence (P34972 whole entry): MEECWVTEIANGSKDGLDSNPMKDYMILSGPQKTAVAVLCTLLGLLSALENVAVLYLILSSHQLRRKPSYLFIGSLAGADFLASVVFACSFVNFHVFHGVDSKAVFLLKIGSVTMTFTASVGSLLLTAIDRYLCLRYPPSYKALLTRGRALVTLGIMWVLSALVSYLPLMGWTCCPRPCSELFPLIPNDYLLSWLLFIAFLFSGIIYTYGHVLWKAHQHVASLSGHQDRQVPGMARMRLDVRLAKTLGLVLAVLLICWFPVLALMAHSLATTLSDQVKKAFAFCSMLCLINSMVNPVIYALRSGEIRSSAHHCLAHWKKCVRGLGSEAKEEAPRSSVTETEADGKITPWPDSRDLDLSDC
The experiment is described as above. The experiment is classed as binding. The protocol:
as §1, §2, §3

The subject of the next experiment is SH-SY5Y cells. Nature of the experiment: Sulforhodamine B (SRB) cell viability assay. The experiment is classed as cell-based, human. As for the experimental part:
We tested the anti-proliferative activity of the novel CB2R agonists FG158a, FG160a, FG161a, and LV62 in neuroblastoma cell lines (Figure 4). The compounds were assayed as a mixture of cis and trans isomers. […] After 72 h of treatment, the effect was higher and could also be observed at lower concentrations. The inhibitory effect was confirmed in another neuroblastoma cell line, SK-N-BE cells.
Human neuroblastoma SHSY5Y and SK-N-BE cell lines were grown in DMEM (GIBCO, Paisley, UK) and MEM (Sigma-Aldrich, St.Louis, MO, USA), respectively, supplemented with 2 mM l-glutamine, […], 50 units/mL penicillin and 10% heat-inactivated fetal bovine serum (FBS) in a humidified atmosphere (5% CO2 at 37 °C). Cells were detached as previously described with 0.25% trypsin (Sigma-Aldrich) at 70–80% confluence.
Cells seeded for 24 h in triplicate in 96-well plates at a density of 8000 cells/well were left to adhere overnight. CB2R agonists were added to the culture in triplicate at concentrations ranging from 2.5–40 µM. After 24 h, 48 h, and 72 h, cells were fixed, shaking for 2 h at 4 °C with 50% v/v trichloroacetic acid and washed with distilled water. Cells left overnight to dry were stained with 0.4% w/v SRB in 1% v/v acetic acid (at room temperature for 30 min on a shaker) and then washed with 1% acetic acid to allow for the removal of the unbound dye. TRIS-HCl 10 mM, pH 7.4 was added to the cells and absorbance was measured at 495 nm as previously shown using a Glomax® Discover Microplate Reader (Promega, Madison, WI, USA). In combinatory assays, similar procedures were adopted and the CB2R antagonist SR144528 (1 µM) was added 1 h before the CB2 agonists (10, 20 and 40 µM) to SHSY5Y cells that were harvested as described above after 72 h of incubation.
Figure 4 Inhibition of cell viability. The effect on cell viability by CB2R agonists was determined by sulforhodamine B (SRB) assays in SH-SY5Y and SK-N-BE cell lines. SH-SY5Y cells were treated with the compounds indicated in the figure for 24 h (A), 48 h (B), and 72 h (C) at the concentrations reported in the histograms. SK-N-BE cells were treated with the same compounds for 72 h (D). Figures report cell viability (mean of at least 3 independent experiments ± SEM) as percent of cell survival vs. untreated cells (considered as 100% of survival). […] The statistical significance was calculated with two-way ANOVA using Dunnett’s multiple comparisons test.

Where [1] appears, read: CHO membranes, 0.1 nM-10 μM compounds.

Usually Ki stands for a measure of affinity in units of concentration, obtained from inhibition or displacement. One may read the IC50 as the concentration that inhibits the measured activity by half.

T1 sequence (P21554 whole entry): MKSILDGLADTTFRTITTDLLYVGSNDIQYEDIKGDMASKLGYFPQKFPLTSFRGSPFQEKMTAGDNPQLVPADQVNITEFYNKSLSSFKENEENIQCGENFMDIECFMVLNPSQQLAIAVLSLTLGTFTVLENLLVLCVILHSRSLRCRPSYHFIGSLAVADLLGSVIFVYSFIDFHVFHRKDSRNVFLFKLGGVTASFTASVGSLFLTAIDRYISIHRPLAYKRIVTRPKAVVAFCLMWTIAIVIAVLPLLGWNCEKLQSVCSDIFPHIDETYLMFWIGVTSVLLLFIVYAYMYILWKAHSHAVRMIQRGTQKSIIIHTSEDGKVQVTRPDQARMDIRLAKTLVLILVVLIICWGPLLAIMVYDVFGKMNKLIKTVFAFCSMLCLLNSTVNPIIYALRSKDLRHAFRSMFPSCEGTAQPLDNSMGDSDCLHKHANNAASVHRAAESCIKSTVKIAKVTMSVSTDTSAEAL

Consider `CC1CCC(NC(=O)c2cc3cccnc3n(CCCCCBr)c2=O)CC1` (stereo not drawn) [FG158a, 1-(5-bromopentyl)-N-(4-methylcyclohexyl)-2-oxo-1,2-dihydro-1,8-naphthyridine-3-carboxamide], for which the values for the inhibition constant Ki on hCB1R and at hCB2R were over 10 µM and 0.021 µM, respectively. The “displacement of [3H]CP55,940 at hCB1R” value at hCB1R (setting [1]) was “not able to displace [^3H]CP55,940”. Moreover, the “displacement of [3H]CP55,940 at hCB2R” value at hCB2R (setting [1]) is “fully displaced [^3H]CP55,940”. For the same compound, in the experiment with SH-SY5Y cells (24 h, 48 h and 72 h, 2.5–40 µM), the “effect on cell viability” value was “inhibited cell viability”. Besides, the concentration for half-maximal inhibition (IC50) in the experiment on SH-SY5Y cells (Homo sapiens, 72 h of treatment, SRB, cis/trans mixture) was 11.8 µM.

(Values after article PMC9101764, “Synthesis and In Vitro Characterization of Selective Cannabinoid CB2 Receptor Agonists: Biological Evaluation against Neuroblastoma Cancer Cells” (Molecules, 2022).)
